From US11576905B2, “Topical semisolid composition containing an antimicrobial agent and pirfenidone for the treatment of chronic skin damage” (Excalibur Pharmaceuticals, Inc., priority 2017, dated 2023)

How the values were obtained:
COL1α = COL1α gene expression in ulcer tissue biopsies of treated patients; format: in vivo, human; conditions: first month of treatment
TGFβ1 = TGFβ1 gene expression in ulcer tissue biopsies of treated patients; format: in vivo, human; conditions: first month of treatment

SMILES: O=C(c1ccc(F)cc1)C1CCN(CCn2c(=O)[nH]c3ccccc3c2=O)CC1 [KTS, Ketanserin]
- Patients showing an increase in COL1α expression (COL1α): 43%
- Patients showing an increase in TGFβ1 gene expression (TGFβ1): 29%
